Patent publication US20120165244A1, “METHODS FOR BINDING LEWIS Y ANTIGEN” (priority 2008, published 2012)

How the values were obtained:
E. coli DH5α = experiment: Bacterial agglutination, FITC-labeled E. coli DH5α; settings: 0.2 M mannose or 5 mM EDTA
Experimental: (§1) K. pneumoniae and E. coli DH5α (BCRC) were washed twice in 0.1 M sodium bicarbonate buffer (pH 9.6) and incubated with 0.1 mg/mL fluorescein isothiocyanate (FITC) at 37° C. in the dark. Each of 20 μg/mL of rTMD1, non-tagged rTMD1, mammalian rTMD1, and recombinant TM domains 2 and 3 (rTMD23) was co-incubated with FITC-labeled bacteria (1×10^5CFU/mL) in buffer (20 mM Tris, pH 7.4, 0.15 M NaCl, 5 mM CaCl2, 1 mg/mL BSA) with or without 0.2 M mannose or 5 mM EDTA. Samples were individually placed on a glass slide and fluorescently-labeled bacteria were observed microscopically to evaluate agglutination.

[1] = LPS binding assay (coated wells); set-up: species or system E. coli
Experimental: K. pneumoniae (3×10^5 CFU/well), E. coli O111:B4 smooth-type LPS (5 μg/well), or bovine serum albumin (BSA, 5 μg/well) in 100 μL of bicarbonate buffer (pH 9.6) were coated onto wells of high-binding microtiter plate (Corning Costar, Cambridge, Mass.). Nonspecific binding was blocked with binding buffer (20 mM Tris-HCl, pH 7.4, 0.15 M NaCl, 5 mM CaCl2) containing 50 mg/mL BSA. Various concentrations of rTMD proteins without or with CD14 (10 μg/mL; R&D Systems) in binding buffer containing 1 mg/mL BSA were added to wells and incubated for 2 hours. In some experiments, 0.2 M mannose, 5 mM EDTA, or Le^y were included in the binding buffer to compete with LPS and rTMD1 binding. Antibody against the c-Myc epitope of the rTMD proteins was added to wells and incubated for 2 hours, and peroxidase-labeled secondary antibody followed. Binding of rTMD proteins was detected by measuring absorbance at 450 nm.

K. pneumoniae = experiment: Bacterial agglutination, FITC-labeled K. pneumoniae; settings: 0.2 M mannose or 5 mM EDTA
Experimental: as §1

rTMD1 [2] = experiment: Effect of Le^y on the blocking effect of rTMD1 on LPS-induced signaling pathways (Western blot); format: cell-based; settings: rTMD1 20 μg/mL, LPS 100 ng/mL
Experimental: rTMD1 (0-50 μg/mL, equals 0-2.18 nmole/mL) pre-incubated without or with Escherichia coli (E. coli) LPS (LPS O111:B4, Sigma-Aldrich) in the absence or presence of Lewis Y (Le^y; Dextra Laboratories, Reading, UK) for 30 minutes was used to stimulate THP-1 or RAW 264.7 cells. Incubation period included 15 minutes for pIκB and IκB (B-9 and C-21, Santa Cruz Biotechnology, Santa Cruz, Calif., unless otherwise noted), 20 minutes for p38 (C-20) and pp38 (D-8), 30 minutes for ERK1/2 (K-23), pERK1/2 (E-4), lamin B2 (E-3, Zymed Laboratories, San Francisco, Calif.), NF-κB p50 (C-19) and NF-κB p65 nuclear translocation (C-20), and 24 hours for iNOS expression using a specific antibody (N-20).

rTMD1 [3] = biological target: T1, rTMD1 (Homo sapiens, UniProt P07204); experiment: rTMD1 ligand analysis (AlphaScreen); format: binding; settings: mammalian- or Pichia-expressed rTMD1
T1 construct: TMD1 (residues Ala^1-Ala^155); made in house
Experimental: Biotin-polyacrylamide (Biotin-PAA)-sugars (GlycoTech, Rockville, Mass.), rTMD1, rabbit anti-mouse IgG antibody (Zymed), mouse anti-6× His tag antibody (Abcam, Cambridge, UK), and streptavidin-coated donor and protein A conjugated acceptor beads (PerkinElmer, Boston, Mass.) were diluted with assay buffer containing 25 mM Tris (pH 7.0), 25 mM CaCl2, and 1 mg/mL BSA to appropriate concentrations. The anti-6× His tag antibody, rabbit anti-mouse IgG antibody, and acceptor beads were incubated with assay buffer for 1 hour at 25° C. before use (as the acceptor mixture). Biotin-PAA-sugars, rTMD1, and donor beads were separately added to wells of ProxiPlate-384 assay plates (PerkinElmer) and incubated at 25° C. for 1 hour. An aliquot of the acceptor mixture was then added to the wells and incubated at 25° C. for another 2 hours. The results were read on a PerkinElmer Envision instrument using the AlphaScreen program. All the procedures and incubations were carried out in the dark.

[4] = biological target: T2, HMGB1 and rTMD1 interaction (Homo sapiens, UniProt P07204); experiment: Effect of Le^y on the binding of HMGB1 with rTMD1
T2 construct: TMD1 (residues Ala^1-Ala^155); 6xHis (C); enterokinase cutting site (internal); made in house
T2 sequence (P07204 19-173): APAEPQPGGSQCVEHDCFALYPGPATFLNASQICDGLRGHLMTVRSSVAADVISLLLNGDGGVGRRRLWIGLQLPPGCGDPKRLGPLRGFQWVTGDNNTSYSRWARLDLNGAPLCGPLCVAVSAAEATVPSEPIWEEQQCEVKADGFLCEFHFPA
T2 sequence (P09429 whole entry partner): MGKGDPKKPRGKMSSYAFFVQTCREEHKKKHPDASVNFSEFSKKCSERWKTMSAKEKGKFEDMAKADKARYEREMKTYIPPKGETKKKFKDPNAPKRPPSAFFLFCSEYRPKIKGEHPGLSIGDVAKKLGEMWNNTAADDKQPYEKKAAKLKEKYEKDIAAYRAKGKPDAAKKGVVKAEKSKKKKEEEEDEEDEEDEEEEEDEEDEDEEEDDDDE

T1 sequence (P07204 19-173): as the sequence (P07204 19-173) above

Compound	effect on rTMD1 agglutination activity, E. coli DH5α (E. coli DH5α)	effect on binding of rTMD1 to LPS ([1]; 0.2 M mannose or 5 mM EDTA, rTMD1 50 μg/mL)	effect on rTMD1 agglutination activity, K. pneumoniae (K. pneumoniae)	effect on blocking effects of rTMD1 on LPS-induced ERK1/2 phosphorylation, IκBα degradation, and NF-κB p50 and p65 nuclear translocation (rTMD1 [2])	rTMD1 affinity of carbohydrate ligand (rTMD1 [3])	effect on binding of rTMD1 with LPS ([1]; various concentrations of Le^y, FIG. 6B)	effect on HMGB1 and rTMD1 interaction [4]
O=C(O)CN(CCN(CC(=O)O)CC(=O)O)CC(=O)O [EDTA, reference compound]	attenuated	inhibited	attenuated	–	–	–	–
Fucα1-2Galβ1-4(Fucα1-3)GlcNAc [Le^y]	–	–	–	dose-dependently neutralize	specific ligand	specifically inhibited	could not abrogate
